Patent US7582786B2, “Synthetic catalytic free radical scavengers useful as antioxidants for prevention and therapy of disease” (Eukarion Inc., priority 1996, dated 2009)

What was measured:
[1] = test system: Human dermal fibroblasts (HF cells); test: Cell protection assay, tert-butylhydroperoxide (t-BHP) toxicity, XTT; format: cell-based; settings: for Cell viability, absorbance at 490 nm uncorrected for blank: t-BHP 0.5 mM
Description: (§1) Human dermal fibroblasts (HF cells) were obtained from the American type tissue Culture Collection at passage 1 and cultured and propagated in a medium (HF medium) consisting of Dulbecco's Modified Eagle's Medium with 4.5 g/l D-glucose, 10% calf serum 4 mM glutamine, 50 units/ml penicillin, and 50 μg/ml streptomycin in a 37° C. humidified incubator equilibrated with 5% CO2. Cells were used at passages 5 or 6 for experiments. For cell protection assays, HF cells were seeded at a density of about 15,000 cells per cm2 onto 96-well culture plates and allowed to grow to confluence. To assess protection tert-butylhydroperoxide (t-BHP) toxicity, confluent cell layers were first treated with the indicated concentrations of test compounds dissolved in HF medium for 18 hr. The medium was then replaced with fresh medium containing test compounds and 0.5 mM tert-butylhydroperoxide (t-BHP) and cells were incubated for another 18 hr. The medium was then removed and replaced with fresh HF medium (100 μl per well) without test compounds or t-BHP. Fifty μl of XTT reagent (Boeringer Mannheim, Inc.), prepared as described by the manufacturer, was then added to each well and the plates returned to the incubator. After 2 hr., the absorbance at 490 nm was measured in a BioRad (Richmond, Calif.) Model 3550 plate-reader, using a reference wavelength of 655 nm. Control cells that had not been exposed to test compounds or toxic agents were included among the samples treated with XTT reagent. Absorbance measurements for blank wells, containing HF medium and XTT reagent but no cells, were also determined. To analyze protection from glucose/glucose oxidase toxicity, confluent cell layers were incubated with HF medium containing glucose oxidase (0.019 units/ml) along with test compounds, as indicated, for 18 hr in the tissue culture incubator. Fresh HF medium was then added and cell viability assessed using the XTT reagent as described above. For both these models, concentrations of toxic agents were selected that were reproducibly completely lethal. Cytotoxicity assessments were routinely confirmed by visual inspection of the cell layers prior to addition of the XTT reagent.

[2] = Catalase activity, conversion of H2O2 to oxygen, polarographic oxygen electrode (Example 2); format: biochemical
Description: Catalase activity was assayed by monitoring the conversion of H2O2 to oxygen using a Clark-type polarographic oxygen electrode. The apparatus consisted of a Mini Clark Style electrode, a 600 μl Oxygen Uptake Chamber, and a Chemical Microsensor system, all obtained from Diamond General Corporation (Ann Arbor, Mich.). The electrode was calibrated by immersion in nitrogen- or air-equilibrated buffers using a Dual Chamber Calibration Cell (Diamond General,. Corp.). Catalase reaction mixtures consisted of 50 mM sodium phosphate, pH 8.1, 0.9% sodium chloride, and salen manganese complex and H2O2 at the indicated concentrations. The temperature of the water-jacketed reaction chamber, as well as the calibration buffers, was maintained at 25±0.1° C. Data were collected at 1 sec intervals and stored-on a MacIntosh II computer using data acquisition hardware and software by Strawberry Tree, Inc. (Sunnyvale, Calif.). Dissolved oxygen concentrations were calculated as described previously (Del Rio et al. (1977) Anal. Biochem. 80: 409) based on a value of 2.5×10^−4 M oxygen for air-saturated buffer at 25° C. Linearity of the dissolved oxygen measurements within the experimental range was continued by determining the amount of oxygen generated from known quantities of H2O2 during exhaustive treatment with bovine liver catalase. Stock solutions of H2O2 were prepared by diluting a commercial 30% H2O2 solution in water and the H2O2 concentrations in these stocks were determined by absorbance at 240 nm, using a molar extinction coefficient of 44 (Stadtman, E R. et al. (1990) Proc. Natl. Acad. Sci. USA 87: 384). […] In the absence of salen manganese complex, H2O2 alone typically produced an early, relatively slow increase in signal. The slope of this increased signal was not proportional to H2O2 concentration (for example in one experiment, 1 and 10 Mm H2O2 yielded apparent rates of 12 and 14 μM oxygen per min, respectively) and may be due to an electrode artifact. […] Where presented, initial rates were calculated by determining the slope of the linear portion of time dependent plots of oxygen generation, usually comprising the first five seconds of the reaction. Unless otherwise indicated, these were corrected by subtracting the rate obtained with H2O2 alone. Where presented, endpoint oxygen generated was calculated from time-dependent plots, such as those shown in FIG. 14, as the difference between the baseline oxygen concentration immediately prior to substrate addition and the maximal oxygen concentration achieved during the course of the reaction. All reactions subjected to these calculations were run for a sufficient time to ensure that oxygen generation had ceased.
(§2) Catalase and peroxidase activities were assayed as described in Example 2. Catalase assays contained 10 μM salen-manganese complex and 10 mM hydrogen peroxide. Peroxidase assays contained 10 μM salen-manganese complex and 0.2 mM hydrogen peroxide. Glucose-glucose oxidase toxicity assays were performed using human dermal fibroblasts as described in Example 2.

[3] = SOD activity, xanthine/xanthine oxidase with cytochrome C as acceptor (Example 2); format: biochemical; settings: relative to C7 (C7 = 100)
Description: Superoxide dismutase (SOD) activity was assayed by following the inhibition of the reduction of an electron acceptor molecule in the presence of the free-radical generating system xanthine/xanthine oxidase (McCord et al. (1973) Superoxide and Superoxide Dismutase in “Oxidases and Related Redox Systems, vol. I, King et al. eds., University Park press, Baltimore, pp. 51-76). The assay mixture consisted of 50 mM sodium phosphate, pH 7.8, 120 μM xanthine, 0.2 units/ml xanthine oxidase, with acceptor molecule and salen manganese compound, as indicated. Assays were conducted at 27±0.2° C. using a water-jacketed cell holder in a Beckman DU7400 spectrophotometer. In most cases, oxidized cytochrome c, at 0.13 mg/ml, was employed as acceptor and its reduction was monitored spectrophotometrically at 550 nm. In some experiments, nitroblue tetrazolium (NBT), at 80 μM, was substituted for cytochrome c as the acceptor. NBT reduction was also monitored at 550 nm. An estimated extinction coefficient for NBT reduction, 20,800 M^−1cm^−1, determined empirically by exhaustive reduction of NBT in the reaction mixture described above, was employed where indicated. […] Conversion of xanthine to urate was calculated using ε290's of […] for urate and 4050 M^−1cm^−1 for xanthine. […] For each compound, at least four different concentrations were tested in duplicate.

brain homogenates = test: Iron-induced lipid peroxidation in brain homogenates (MDA); format: biochemical, rat
Description: Lipid peroxidation was induced by incubating a mixture consisting of 0.25 ml homogenate, 0.25 ml ASCF with test compounds, and 10 μM FeCl2 for 1 hr at 35° C. under an atmosphere equilibrated with O2:CO2(95:5). Following the incubation, 0.1 ml of the sample was extracted with trichloroacetic acid and analyzed for thiobarbituric acid reactive material as described previously, using authentic malonyldialdehyde (MDA) as a standard.

[4] = Peroxidase activity, H2O2-dependent oxidation of ABTS (Example 2); format: biochemical; settings: for Peroxidase rate: 10 μM salen manganese complex, 0.2 mM H2O2; for Peroxidase: relative to C7 (C7 = 100)
Description: (§3) Peroxidase activity was assayed by monitoring the hydrogen peroxide-dependent oxidation of 2,2′-azino-bis(3-ethylbenzthiazoline-6) sulfonic acid (ABTS) spectrophotometrically. Standard assay mixtures consisted of 50 mM sodium phosphate, pH 8.1, 0.9% sodium chloride, 0.5 mM ABTS, and H2O2 and salen manganese complex as indicated. Where indicated, 50 mM sodium phosphate buffers of pH 6.0 or pH 7.1 were substituted. Assays were conducted at 27±0.2° C. ABTS oxidation was monitored at 740 or 500 nm to eliminate interference by the salen manganese complexes, many of which absorb in the vicinity of the λmax of oxidized ABTS, and to avoid absorbance values that exceeded the linear range of the spectrophotometer. The amount of oxidized ABTS was estimated using an Δε740 of 20,300 M^−1cm^−1 or an Δε500 of 3400 M^−1cm^−1 calculated based upon the published molar extinction coefficient oat 405 nm (36,800).
as §2

[5] = test system: Human dermal fibroblasts (HF cells); test: Cell protection assay, glucose/glucose oxidase toxicity, XTT; format: cell-based
Description: as §1, §2

[6] = Peroxidase activity with t-BHP as substrate, ABTS oxidation; format: biochemical; settings: 1 mM t-BHP
Description: as §3
(In comparison, horseradish peroxidase utilized t-BHP with an ABTS oxidation rate that was about 5.4% of the rate with H2O2).

[7] = 10 μM salen manganese complex, 10 mM H2O2

Molecule | Cell viability, absorbance at 490 nm uncorrected for blank ([1]; 2.5 μM) | Cell viability, absorbance at 490 nm uncorrected for blank ([1]; 5 μM) | Cell viability, absorbance at 490 nm uncorrected for blank ([1]; 10 μM) | Cell viability, absorbance at 490 nm uncorrected for blank ([1]; 20 μM) | Cell viability, absorbance at 490 nm uncorrected for blank ([1]; 40 μM) | Cell viability, absorbance at 490 nm uncorrected for blank ([1]; 80 μM) | Catalase rate [2, 7] [μM O2/min] | Endpoint [2, 7] [maximal μM O2] | Catalase endpt. ([2]; relative to C7 (C7 = 100)) | Catalase rate ([2]; relative to C7 (C7 = 100)) | SOD [3] | MDA levels, percent of control (brain homogenates; 1 μM) [%] | MDA levels, percent of control (brain homogenates; 5 μM) [%] | MDA levels, percent of control (brain homogenates; 10 μM) [%] | MDA levels, percent of control (brain homogenates; 25 μM) [%] | Peroxidase rate [4] [μM ABTS oxidized/min] | Peroxidase [4] | protection against glucose and glucose oxidase (in words) [5] | further results
CC(=O)[O][Mn]1[O]c2ccccc2C=NCCN=Cc2ccccc2[O]1 [Compound C31] | 0.28 ± 0.01 | 1.25 ± 0.09 | 1.41 ± 0.08 | 1.40 ± 0.06 | 1.30 ± 0.03 | 1.16 ± 0.09 | 131.9 ± 12.9 | 29.6 ± 0.5 | 81 | 92 | 101 | 108 | 22 | 6 | 0 | 21.3 ± 0.5 | 114 | about equally as effective as C7 | synergistic toxicity with t-BHP ([1]; 80 μM): possible synergistic toxicity
COc1ccc2c(c1)[O][Mn]([O]C(C)=O)[O]c1cc(OC)ccc1C=NCCN=C2 [Compound C33] | 0.27 ± 0.01 | 0.27 ± 0.01 | 1.35 ± 0.08 | 1.44 ± 0.08 | 1.50 ± 0.11 | 1.36 ± 0.02 | 53.9 ± 8.7 | 12.6 ± 1.3 | 44 | 38 | 68 | 98 | 38 | 16 | 7 | 0.8 ± 0.2 | 4 | about equally as effective as C7 | 
COc1ccc2c(c1)[O][Mn]([Cl])[O]c1cc(OC)ccc1C=NCCN=C2 [Compound C34] | 0.27 ± 0.01 | 0.27 ± 0.01 | 1.20 ± 0.12 | 1.46 ± 0.08 | 1.48 ± 0.08 | 1.54 ± 0.08 | 66.4 ± 13.9 | 11.9 ± 0.2 | 44 | 46 | 70 | 97 | 30 | 12 | 6 | 0.8 ± 0.2 | 4 | about equally as effective as C7 | 
COc1ccc2c(c1)C=NCCN=Cc1cc(OC)ccc1[O][Mn]([Cl])[O]2 [Compound C41] | 0.28 ± 0.01 | 0.28 ± 0.01 | 1.37 ± 0.01 | 1.44 ± 0.04 | 1.35 ± 0.06 | 1.07 ± 0.03 | 172.2 ± 2.2 | 83.5 ± 0.9 | 311 | 120 | 114 |  |  |  |  | 23.4 ± 2.6 | 136 |  | toxicity of compound alone ([1]; 80 μM, without t-BHP): equivalent toxicity with or without t-BHP; turnovers before the catalase reaction ceased ([2]; 10 μM complex, 10 mM H2O2): about 16 turnovers; protection against glucose and glucose oxidase ([5]; 80 μM, glucose oxidase 0.019 units/ml): highly protective
horseradish peroxidase |  |  |  |  |  |  |  |  |  |  |  |  |  |  |  |  |  |  | ABTS oxidation rate with t-BHP, percent of rate with H2O2 [6]: about 5.4%; rate of ABTS oxidation ([4]; 13.2 units/ml, pH 8.1, 1 mM H2O2): 99.3 µM/min
